# Experimental data as given in ChEMBL document CHEMBL5338805, “Discovery of the First Subnanomolar PPARα/δ Dual Agonist for the Treatment of Cholestatic Liver Diseases” (J Med Chem, 2023).
# The source made the active and inactive calls. The calls are words filed in the database; no cut-off is given here.
# Assays:
# [1] = Anti-fibrosis activity in Ccl4-induced C57BL/6Nifdc mouse model assessed as reversal of increased Col1a1 administered orally for 3 weeks by Western blot analysis; format: ADME; conditions: in vivo, po, 504 h, dose 0.03-0.1 mg/kg
# [2] = Anti-cholestatic activity in ANIT-induced C57BL/6Nifdc mouse model assessed as decrease in liver TUDCA at 0.03 to 0.1 mg/kg, po upto 42 hrs measured after 48 hrs; format: ADME, organism-based; conditions: in vivo, 90 h, dose 0.03-0.1 mg/kg
# [3] = Oral bioavailability in fasted Sprague-Dawley rat at 10 mg/kg measured at 0.083 to 24 hrs by LC-MS/MS analysis; format: ADME, organism-based; conditions: in vivo, time 0.083-24 hrs
# [4] = Upregulation of Mrp4 gene expression in C57BL/6JNifdc mouse liver assessed as increased efflux of bile acid administered at 0.03 to 0.1 mg/kg, po for 3 days measured after 6 hrs of last administration by real-time PCR analysis; format: ADME, organism-based; conditions: in vivo, 78 h, dose 0.03-0.1 mg/kg, time 3.25 day
# [5] = Mutagenicity in Salmonella typhimurium TA100 measured at 0.21 to 16.67 mg/ml for 72 hrs by mini-Ames test; format: toxicity; conditions: salmonella enterica subsp. enterica serovar typhimurium, dose 0.21-16.67 mg/ml
# [6] = biological target: Bile acid receptor (Homo sapiens) (UniProt Q96RI1); assay: Agonist activity at FXR (unknown origin) transfected in african green monkey COS7 cells assessed transactivation incubated at 1 uM for 16 hrs by luciferase assay; format: cell-based
# [7] = Anti-cholestatic activity in ANIT-induced C57BL/6Nifdc mouse model assessed as decrease in liver TCDCA at 0.03 to 0.1 mg/kg, po upto 42 hrs measured after 48 hrs; format: ADME, organism-based; conditions: in vivo, 90 h, dose 0.03-0.1 mg/kg
# [8] = Anti-cholestatic activity in ANIT-induced C57BL/6Nifdc mouse model assessed as downregulation of proinflammatory Ccl4 gene at 0.03 to 0.1 mg/kg, po upto 42 hrs measured after 48 hrs; format: ADME, organism-based; conditions: in vivo, 90 h, dose 0.03-0.1 mg/kg
# [9] = Anti-cholestatic activity in ANIT-induced C57BL/6Nifdc mouse model assessed as decrease in liver 3-H-7, 12-Dkca at 0.03 to 0.1 mg/kg, po upto 42 hrs measured after 48 hrs; format: ADME, organism-based; conditions: in vivo, 90 h, dose 0.03-0.1 mg/kg
# [10] = Anti-cholestatic activity in ANIT-induced C57BL/6Nifdc mouse model assessed as decrease in liver DHLCA at 0.03 to 0.1 mg/kg, po upto 42 hrs measured after 48 hrs; format: ADME, organism-based; conditions: in vivo, 90 h, dose 0.03-0.1 mg/kg
# [11] = Stability in human liver microsome assessed as intrinsic clearance at 1 uM for 0 to 45 mins by LC/MS-8050 analysis; format: ADME; conditions: liver microsomes, time 0-45 min, read-out: CLH
# [12] = biological target: Nuclear receptor ROR-alpha (Homo sapiens) (UniProt P35398); assay: Agonist activity at RORalpha (unknown origin) transfected in african green monkey COS7 cells assessed transactivation incubated at 1 uM for 16 hrs by luciferase assay; format: cell-based
# [13] = Anti-cholestatic activity in ANIT-induced C57BL/6Nifdc mouse model assessed as downregulation of proinflammatory Il1b gene at 0.03 to 0.1 mg/kg, po upto 42 hrs measured after 48 hrs; format: ADME, organism-based; conditions: in vivo, 90 h, dose 0.03-0.1 mg/kg
# [14] = Anti-cholestatic activity in ANIT-induced C57BL/6Nifdc mouse model assessed as decrease in serum total bilirubin level at 0.03 to 0.1 mg/kg, po upto 42 hrs measured after 48 hrs; format: ADME, organism-based; conditions: in vivo, 90 h, dose 0.03-0.1 mg/kg
# [15] = Anti-cholestatic activity in ANIT-induced C57BL/6Nifdc mouse model assessed as decrease in liver 12-OCDCA at 0.03 to 0.1 mg/kg, po upto 42 hrs measured after 48 hrs; format: ADME, organism-based; conditions: in vivo, 90 h, dose 0.03-0.1 mg/kg
# [16] = AUC in fasted Sprague-Dawley rat at 10 mg/kg, po measured at 0.083 to 24 hrs by LC-MS/MS analysis; format: ADME, organism-based; set-up: time lower 0.083 hrs, dose 10 mg/kg, time upper 24 hrs, route po; conditions: in vivo
# [17] = Down-streaming of Cyp7a1 gene expression in C57BL/6JNifdc mouse liver assessed as hepatic resorption of bile acid administered at 0.03 mg/kg, po for 3 days measured after 6 hrs of last administration by real-time PCR analysis; format: ADME, organism-based; conditions: in vivo, 78 h
# [18] = Anti-cholestatic activity in ANIT-induced C57BL/6Nifdc mouse model assessed as decrease in serum alanine aminotransferase at 0.03 to 0.1 mg/kg, po upto 42 hrs measured after 48 hrs; format: ADME, organism-based; conditions: in vivo, 90 h, dose 0.03-0.1 mg/kg
# [19] = In vivo upregulation of PPAR alpha in C57BL/6JNifdc mouse liver administered at 0.03 mg/kg, po for 3 days measured after 6 hrs of last administration by real-time PCR analysis; format: ADME, organism-based; conditions: 78 h, time 3.25 day
# [20] = biological target: Oxysterols receptor LXR-beta (Homo sapiens) (UniProt P55055); assay: Agonist activity at LXRbeta (unknown origin) transfected in african green monkey COS7 cells assessed transactivation incubated at 1 uM for 16 hrs by luciferase assay; format: cell-based
# HepG2 = assay: Cytotoxicity against human HepG2 cells incubated upto 100 uM for 24 hrs by CCK8 assay; format: toxicity, cell-based; conditions: hepg2, 24 h
# [21] = Down-streaming of Oatp1 gene expression in C57BL/6JNifdc mouse liver assessed as hepatic resorption of bile acid administered at 0.03 mg/kg, po for 3 days measured after 6 hrs of last administration by real-time PCR analysis; format: ADME, organism-based; conditions: in vivo, 78 h
# [22] = Anti-fibrosis activity in Ccl4-induced C57BL/6Nifdc mouse model assessed as decrease in inflammatory cells administered orally for 3 weeks; format: ADME, cell-based; conditions: in vivo, po, 504 h, dose 0.03-0.1 mg/kg
# [23] = Anti-cholestatic activity in ANIT-induced C57BL/6Nifdc mouse model assessed as decrease in serum TBA at 0.03 to 0.1 mg/kg, po upto 42 hrs measured after 48 hrs; format: ADME, organism-based; conditions: in vivo, 90 h, dose 0.03-0.1 mg/kg
# [24] = Anti-cholestatic activity in ANIT-induced C57BL/6Nifdc mouse model assessed as decrease in phosphorylated p65 level at 0.03 to 0.1 mg/kg, po upto 42 hrs measured after 48 hrs by Western blot analysis; format: ADME, organism-based; conditions: in vivo, 90 h, dose 0.03-0.1 mg/kg
# [25] = Anti-cholestatic activity in ANIT-induced C57BL/6Nifdc mouse model assessed as decrease in serum aspartate aminotransferase at 0.03 to 0.1 mg/kg, po upto 42 hrs measured after 48 hrs; format: ADME, organism-based; conditions: in vivo, 90 h, dose 0.03-0.1 mg/kg
# [26] = Anti-cholestatic activity in ANIT-induced C57BL/6Nifdc mouse model assessed as downregulation of proinflammatory Il6 gene at 0.03 to 0.1 mg/kg, po upto 42 hrs measured after 48 hrs; format: ADME, organism-based; conditions: in vivo, 90 h, dose 0.03-0.1 mg/kg
# [27] = Acute toxicity in mouse assessed as mortality administered orally for 14 days; conditions: in vivo, po, 336 h, time 14 day
# [28] = Mutagenicity in Salmonella typhimurium TA98 measured at 0.21 to 16.67 mg/ml for 72 hrs by mini-Ames test; format: toxicity; conditions: salmonella enterica subsp. enterica serovar typhimurium, dose 0.21-16.67 mg/ml
# [29] = Anti-cholestatic activity in ANIT-induced C57BL/6Nifdc mouse model assessed as decrease in liver TCA at 0.03 to 0.1 mg/kg, po upto 42 hrs measured after 48 hrs; format: ADME, organism-based; conditions: in vivo, 90 h, dose 0.03-0.1 mg/kg
# [30] = Anti-cholestatic activity in ANIT-induced C57BL/6Nifdc mouse model assessed as decrease in liver HCA at 0.03 to 0.1 mg/kg, po upto 42 hrs measured after 48 hrs; format: ADME, organism-based; conditions: in vivo, 90 h, dose 0.03-0.1 mg/kg
# [31] = biological target: Vitamin D3 receptor (Homo sapiens) (UniProt P11473); assay: Agonist activity at VDR (unknown origin) transfected in african green monkey COS7 cells assessed transactivation incubated at 1 uM for 16 hrs by luciferase assay; format: cell-based
# Sequence of Vitamin D3 receptor (Homo sapiens) (P11473 whole entry): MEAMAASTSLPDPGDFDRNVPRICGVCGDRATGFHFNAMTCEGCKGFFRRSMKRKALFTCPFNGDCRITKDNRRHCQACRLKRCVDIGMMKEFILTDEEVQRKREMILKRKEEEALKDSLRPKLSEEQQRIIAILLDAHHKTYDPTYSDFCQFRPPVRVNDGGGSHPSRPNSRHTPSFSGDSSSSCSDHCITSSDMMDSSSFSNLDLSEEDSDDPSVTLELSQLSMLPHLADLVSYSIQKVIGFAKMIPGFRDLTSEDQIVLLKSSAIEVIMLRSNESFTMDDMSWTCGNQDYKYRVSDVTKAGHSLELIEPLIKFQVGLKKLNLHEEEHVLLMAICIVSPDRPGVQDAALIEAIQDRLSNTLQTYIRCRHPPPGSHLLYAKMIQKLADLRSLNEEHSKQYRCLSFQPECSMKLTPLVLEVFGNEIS
# Sequence of Nuclear receptor ROR-alpha (Homo sapiens) (P35398 whole entry): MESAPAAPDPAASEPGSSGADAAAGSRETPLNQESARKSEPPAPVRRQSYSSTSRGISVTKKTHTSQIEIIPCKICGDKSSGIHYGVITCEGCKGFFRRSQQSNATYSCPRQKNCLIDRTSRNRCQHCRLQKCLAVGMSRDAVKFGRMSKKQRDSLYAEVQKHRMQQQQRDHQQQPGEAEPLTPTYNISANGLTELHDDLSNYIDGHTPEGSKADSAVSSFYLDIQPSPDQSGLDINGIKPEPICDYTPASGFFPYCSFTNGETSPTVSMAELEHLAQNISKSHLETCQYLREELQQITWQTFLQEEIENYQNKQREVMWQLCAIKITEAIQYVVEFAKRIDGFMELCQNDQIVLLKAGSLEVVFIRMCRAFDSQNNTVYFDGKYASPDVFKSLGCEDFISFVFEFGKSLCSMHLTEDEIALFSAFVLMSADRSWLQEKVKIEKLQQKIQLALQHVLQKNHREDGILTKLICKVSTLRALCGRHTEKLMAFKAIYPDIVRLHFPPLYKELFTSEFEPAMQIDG
# Sequence of Bile acid receptor (Homo sapiens) (Q96RI1 whole entry): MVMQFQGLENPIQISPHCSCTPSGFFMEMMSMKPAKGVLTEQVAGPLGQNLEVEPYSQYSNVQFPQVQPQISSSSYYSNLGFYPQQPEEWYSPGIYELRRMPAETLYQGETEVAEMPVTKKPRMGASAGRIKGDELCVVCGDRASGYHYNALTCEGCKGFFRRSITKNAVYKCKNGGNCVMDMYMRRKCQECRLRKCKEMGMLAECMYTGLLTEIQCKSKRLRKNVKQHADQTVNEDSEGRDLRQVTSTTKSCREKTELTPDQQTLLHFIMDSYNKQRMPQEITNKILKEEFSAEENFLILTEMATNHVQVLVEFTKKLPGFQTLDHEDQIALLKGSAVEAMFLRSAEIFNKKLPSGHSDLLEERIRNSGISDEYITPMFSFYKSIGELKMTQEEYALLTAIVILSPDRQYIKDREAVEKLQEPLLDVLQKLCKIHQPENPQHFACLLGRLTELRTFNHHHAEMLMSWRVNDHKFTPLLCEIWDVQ
# Sequence of Oxysterols receptor LXR-beta (Homo sapiens) (P55055 whole entry): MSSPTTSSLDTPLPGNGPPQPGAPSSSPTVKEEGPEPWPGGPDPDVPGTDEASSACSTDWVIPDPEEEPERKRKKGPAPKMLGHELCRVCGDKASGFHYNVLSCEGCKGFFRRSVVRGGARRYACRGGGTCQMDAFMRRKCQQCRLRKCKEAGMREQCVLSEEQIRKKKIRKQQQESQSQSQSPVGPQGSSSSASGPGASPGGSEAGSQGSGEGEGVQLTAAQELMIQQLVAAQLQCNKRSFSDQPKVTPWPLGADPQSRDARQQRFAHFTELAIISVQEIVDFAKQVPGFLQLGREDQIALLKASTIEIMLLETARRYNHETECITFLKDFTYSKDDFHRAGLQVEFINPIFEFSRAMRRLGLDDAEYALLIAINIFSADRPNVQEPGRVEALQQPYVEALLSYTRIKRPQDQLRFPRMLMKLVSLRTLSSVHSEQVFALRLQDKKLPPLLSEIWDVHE
smiles,measurement,setting,value
Cc1cc(CN2C(=O)CN(c3ccc(C(F)(F)F)cc3)C2=O)cc(C)c1OC(C)(C)C(=O)O,Activity,[1],Dose-Dependent Effect
same,Activity,[2],Active
same,bioavailability,[3],105%
same,Activity,[4],Active
same,Activity,[5],Non-Toxic
same,Activity,[6],inactive
same,Activity,[7],Active
same,Activity,[8],Active
same,Activity,[9],Active
same,Activity,[10],Active
same,CLint scaled at 1 µM,[11],6.24 mL/min/kg
same,Activity,[12],inactive
same,Activity,[13],Active
same,Activity,[14],Active
same,Activity,[15],Active
same,AUC,[16],22300 ng·h/mL
same,Activity,[17],Active
same,Activity,[18],Active
same,Activity,[19],Active
same,Activity,[20],inactive
same,Activity,HepG2,Non-Toxic
same,Activity,[21],Active
same,Activity,[22],Dose-Dependent Effect
same,Activity,[23],Active
same,Activity,[24],Active
same,Activity,[25],Active
same,Activity,[26],Active
same,Activity,[27],Non-Toxic
same,Activity,[28],Non-Toxic
same,Activity,[29],Active
same,Activity,[30],Active
same,Activity,[31],inactive
